Test system: tobacco budworm (Heliothis virescens [Fabricius])
Experiment: surface-treated diet test, insecticidal activity against tobacco budworm
Format: in vivo
Set-up: mortality: concentration or dose not given beside the values
Conditions: 0.25 millimoles of candidate insecticide on the surface of the diet, second instar larvae, five-day exposure; for Percent Mortality / mortality: compared to total number of insects infested; for Percent Growth Inhibition / pest or weed control at 0.25 mmol/well: inhibition of insect weight relative to untreated controls; for mortality / pest or weed control at 0.25 mmol/well: Heliothis virescens, 120 h; for mortality: read-out: Percent Mortality; for pest or weed control at 0.25 mmol/well: read-out: Percent Growth Inhibition
Experimental: Candidate insecticides were evaluated for activity against the tobacco budworm (Heliothis virescens [Fabricius]) in a surface-treated diet test.
In this test one mL of molten (65-70° C.) wheat germ-based artificial diet was pipetted into each well of a four by six (24 well) multi-well plate (ID# 430345-15.5 mm dia.×17.6 mm deep; Corning Costar Corp., One Alewife Center, Cambridge, Mass. 02140). The diet was allowed to cool to ambient temperature before treatment with candidate insecticide.
For a determination of insecticidal activity, solutions of the candidate insecticides were prepared for testing using a Packard 204DT Multiprobe® Robotic System (Packard Instrument Company, 800 Research Parkway, Meriden, Conn. 06450), in which the robot first diluted a standard 50 millimolar DMSO solution of candidate insecticide with a 1:1 water/acetone solution (V/V) in a ratio of 1:7 stock solution to water/acetone. The robot subsequently pipetted 40 microliters of the so-prepared solution onto the surface of the diet in each of three wells in the 24 multi-well plate. The process was repeated with solutions of seven other candidate insecticides. Once treated, the contents of the multi-well plate were allowed to dry, leaving 0.25 millimoles of candidate insecticide on the surface of the diet, or a concentration of 0.25 millimolar. Appropriate untreated controls containing only DMSO on the diet surface were also included in this test.
For evaluations of the insecticidal activity of a candidate insecticide at varying rates of application, the test was established as described above using sub-multiples of the standard 50 millimolar DMSO solution of candidate insecticide. For example, the standard 50 millimolar solution was diluted by the robot with DMSO to give 5, 0.5, 0.05, 0.005, 0.0005 millimolar, or more dilute solutions of the candidate insecticide. In these evaluations there were six replicates of each rate of application placed on the surface of the diet in the 24 multi-well plate, for a total of four rates of application of candidate insecticide in each plate.
In each well of the test plate was placed one second instar tobacco budworm larvea, each weighing approximately five milligrams. After the larvae were placed in each well, the plate was sealed with clear polyfilm adhesive tape. The tape over each well was perforated to ensure an adequate air supply. The plates were then held in a growth chamber at 25° C. and 60% relative humidity for five days (light 14 hours/day).
After the five-day exposure period insecticidal activity for each rate of application of candidate insecticide was assessed as percent inhibition of insect weight relative to the weight of insects from untreated controls, and percent mortality when compared to the total number of insects infested.
The test compounds of formula I are identified by numbers that correspond to those in Table 1.

Row | Compound | Percent Mortality [%] | Percent Growth Inhibition [%] | mortality [%] | pest or weed control at 0.25 mmol/well [%]
1 | CCON=Cc1ccc(C[N+]2([O-])CCC(O)(C(c3ccc(OC(F)(F)F)cc3)c3ccc(OC(F)(F)F)cc3)CC2)cc1 (stereo not drawn) [Compound 118] | 100 | 100 |  | 
2 | CC(C)OC(=O)Nc1ccc(C[N+]2([O-])CCC(O)(C(c3ccc(OC(F)(F)F)cc3)c3ccc(OC(F)(F)F)cc3)CC2)cc1 (stereo not drawn) [Compound 119] | 100 | 100 |  | 
3 | [O-][N+]1(Cc2ccc(Oc3ncccn3)cc2)CCC(O)(C(c2ccc(C(F)(F)F)cc2)c2ccc(C(F)(F)F)cc2)CC1 (stereo not drawn) [Compound 120] | 100 | 100 |  | 
4 | CCCOc1ccc(C[N+]2([O-])CCC(O)(C(O)(c3ccc(C(F)(F)F)cc3)c3ccc(C(F)(F)F)cc3)CC2)cc1 (stereo not drawn) [Compound 121] | 100 | 100 |  | 
5 | Cn1nnc(-c2ccc(C[N+]3([O-])CCC(O)(C(O)(c4ccc(OC(F)(F)F)cc4)c4ccc(OC(F)(F)F)cc4)CC3)cc2)n1 (stereo not drawn) [Compound 122] | 100 | 100 |  | 
6 | CCCOc1ccc(C[N+]2([O-])CCC(O)(C(O)(c3ccc(OC(F)(F)F)cc3)c3ccc(OC(F)(F)F)cc3)CC2)cc1 (stereo not drawn) [Compound 123] | 100 | 100 |  | 
7 | FC(F)(F)Oc1ccc(C(c2ccc(OC(F)(F)F)cc2)C2(F)CCN(Cc3ccc(Oc4ncccn4)cc3)CC2)cc1 [Compound 192, 4-{bis[4-(trifluoromethoxy)phenyl]methyl}-4-fluoro-1-[(4-pyrimidin-2-yloxyphenyl)methyl]piperidine] |  |  | 100 | 100
8 | FC(F)(F)c1ccc(C(c2ccc(C(F)(F)F)cc2)C2(F)CCN(Cc3ccc(Oc4ccccn4)cc3)CC2)cc1 [Compound 193] | 100 | 100 |  | 
9 | FC(F)(F)c1ccc(C(c2ccc(C(F)(F)F)cc2)C2(F)CCN(Cc3ccc(Oc4ncccn4)cc3)CC2)cc1 [Compound 194] | 100 | 100 |  | 
10 | CCOC(=O)C1(C(Cl)(c2ccc(C(F)(F)F)cc2)c2ccc(C(F)(F)F)cc2)CCN(Cc2ccc(Oc3ccccn3)cc2)CC1 [Compound 195, ethyl 4-{bis[4-(trifluoromethyl)phenyl]chloromethyl}-1-[(4-(2-pyridyloxy)phenyl)methyl]piperidine-4-carboxylate] |  |  | 100 | 100
11 | Cc1ccc(Oc2ccc(CN3CCC(O)(C(c4ccc(OC(F)(F)F)cc4)c4ccc(OC(F)(F)F)cc4)CC3)cc2)nn1 [Compound 255] | 100 | 100 |  | 
12 | O=Cc1ccc(C(c2ccc(OC(F)(F)F)cc2)C2(O)CCN(Cc3ccc(Oc4ccccn4)cc3)CC2)cc1 (stereo not drawn) [Compound 256] | 17 | 100 |  | 
13 | CC(C)(C)c1ccc(C(c2ccc(OC(F)(F)F)cc2)C2(O)CCN(Cc3ccc(Oc4ccccn4)cc3)CC2)cc1 (stereo not drawn) [Compound 257] | 100 | 100 |  | 
14 | COCCOCCON=Cc1ccc(CN2CCC(O)(C(c3ccc(OC(F)(F)F)cc3)c3ccc(OC(F)(F)F)cc3)CC2)cc1 [Compound 258] | 100 | 100 |  | 
15 | CCOCON=Cc1ccc(CN2CCC(O)(C(c3ccc(OC(F)(F)F)cc3)c3ccc(OC(F)(F)F)cc3)CC2)cc1 [Compound 259] | 100 | 100 |  | 
16 | COc1ccc(C(c2ccc(OC(F)(F)F)cc2)C2(O)CCN(Cc3ccc(Oc4ccccn4)cc3)CC2)cc1 (stereo not drawn) [Compound 260] | 100 | 100 |  | 
17 | OC1(C(c2ccc(Br)cc2)c2ccc(OC(F)(F)F)cc2)CCN(Cc2ccc(Oc3ccccn3)cc2)CC1 (stereo not drawn) [Compound 261] | 100 | 100 |  | 
18 | Cc1ccc(C(c2ccc(OC(F)(F)F)cc2)C2(O)CCN(Cc3ccc(Oc4ccccn4)cc3)CC2)cc1 (stereo not drawn) [Compound 262] | 100 | 100 |  | 
19 | OC1(C(c2ccc(OC(F)(F)F)cc2)c2ccc(OC(F)(F)F)cc2)CCN(Cc2ccc(C3OCCO3)cc2)CC1 [Compound 263] | 100 | 100 |  | 
20 | OC1(C(c2ccc(C(F)(F)F)cc2)c2ccc(C(F)(F)F)cc2)CCN(Cc2ccc(C3OCCO3)cc2)CC1 [Compound 264] | 33 | 100 |  | 
21 | OC1(C(c2ccc(OC(F)(F)F)cc2)c2ccc(C(F)(F)F)cc2)CCN(Cc2ccc(Oc3ccccn3)cc2)CC1 (stereo not drawn) [Compound 265] | 100 | 100 |  | 
22 | COCCON=Cc1ccc(CN2CCC(O)(C(c3ccc(OC(F)(F)F)cc3)c3ccc(OC(F)(F)F)cc3)CC2)cc1 [Compound 266] | 100 | 100 |  | 
23 | OC1(C(c2ccc(Cl)cc2)c2ccc(Cl)cc2)CCN(Cc2ccc(Oc3ccccn3)cc2)CC1 [Compound 267] | 100 | 100 |  | 
24 | ON=Cc1ccc(CN2CCC(O)(C(c3ccc(C(F)(F)F)cc3)c3ccc(C(F)(F)F)cc3)CC2)cc1 [Compound 270] | 100 | 100 |  | 
25 | Cc1cccnc1Oc1ccc(CN2CCC(O)(C(c3ccc(OC(F)(F)F)cc3)c3ccc(OC(F)(F)F)cc3)CC2)cc1 [Compound 271] | 100 | 100 |  | 
26 | Cc1ccc(Oc2ccc(CN3CCC(O)(C(c4ccc(OC(F)(F)F)cc4)c4ccc(OC(F)(F)F)cc4)CC3)cc2)nc1 [Compound 272] | 100 | 100 |  | 
27 | CCOC(OCC)c1ccc(CN2CCC(O)(C(c3ccc(OC(F)(F)F)cc3)c3ccc(OC(F)(F)F)cc3)CC2)cc1 [Compound 273] | 100 | 100 |  | 
28 | COc1ccc(Oc2ccc(CN3CCC(O)(C(c4ccc(OC(F)(F)F)cc4)c4ccc(OC(F)(F)F)cc4)CC3)cc2)nn1 [Compound 274] | 100 | 100 |  | 
29 | N#CCON=Cc1ccc(CN2CCC(O)(C(c3ccc(OC(F)(F)F)cc3)c3ccc(OC(F)(F)F)cc3)CC2)cc1 [Compound 275] | 100 | 100 |  | 
30 | Cc1cccc(Oc2ccc(CN3CCC(O)(C(c4ccc(OC(F)(F)F)cc4)c4ccc(OC(F)(F)F)cc4)CC3)cc2)n1 [Compound 276] | 100 | 100 |  | 

From patent US8119563B2, “N-substituted azacycles” (FMC Corporation, priority 2003, dated 2012)
